Columns and labels:
[1] = tested on: MGC1136 expression; assay: Change in MGC1136 expression after treatment with methylation inhibitor, quantitative RT-PCR; assay type: cell-based, human; conditions: 1 μM for 72 hours, adjusted for GAPDH
Experimental: (§1) FIG. 5 is a graphical representation showing the change In expression of KIAA1983 in epithelial ovarian cancer cell lines following treatment with the methyl transferase inhibitor 5-AZA (1 μM) for 72 hours, as determined by quantitative RT-PCR. The non-transformed cell line HOSE 6-3 was used as a control. Ovarian cancer cell lines were IGROV1, TOV21 G, OV90 and CAOV3. The relative amount of KIAA1983 mRNA in each cell line before (filled) and after (unfilled) treatment with methylation inhibitor was determined by comparison to a standard housekeeping gene (GAPDH), and is expressed as a fold change in expression level following treatment.
FIG. 9 is a graphical representation showing MGC1136 expression in IGROV, TOV21G and CaOV3 cells, in the presence (+) or absence (−) of the methylation inhibitor 5AZA (1 μM 5AZA for 72 hours). MGC1136 expression is represented as a relative fold change in expression in each cell line following treatment with 5AZA, and adjusted for the level of the housekeeping gene GAPDH. Experiments were performed as described in the legend for FIG. 5.
However, expression of MGC1136 is not increased in TOV21 G cells (clear cell ovarian cancer) following treatment with the methylation inhibitor 5AZA. Thus, loss of MGC1136 expression by methylation of the MGC1136 promoter may be restricted to particular histological phenotypes of epithelial ovarian cancer.

[2] = tested on: KIAA1983 mRNA expression; assay: Change in KIAA1983 expression after treatment with methyl transferase inhibitor, quantitative RT-PCR; assay type: cell-based, human; conditions: 1 μM for 72 hours, relative to GAPDH
Experimental: as §1
Total RNA was isolated from the normal and tumour cell lines, reverse transcribed into cDNA and used as template in a quantitative PCR using a LightCycler system (Roche Diagnostics). The relative amount of each gene product was determined by comparison to a standard housekeeping gene (GAPDH).
Thus, KIAA1983 is susceptible to gene silencing by hypermethylation thereby contributing to its reduced expression in epithelial ovarian cancers.

Nc1ncn([C@H]2C[C@H](O)[C@@H](CO)O2)c(=O)n1 [5-AZA, 5-aza-2′deoxycytodine]
expression of MGC1136 following treatment ([1]; CaOV3 cell line (serous epithelial ovarian cancer)): marked increase in expression of MGC1136
expression of MGC1136 following treatment ([1]; IGROV cell line (serous epithelial ovarian cancer)): marked increase in expression of MGC1136
expression of MGC1136 following treatment ([1]; TOV21 G cells (clear cell ovarian cancer)): not increased
expression of KIAA1983 mRNA following treatment ([2]; epithelial ovarian cancer cell lines having reduced expression of KIAA1983 (IGROV1, TOV21G, OV90, CAOV3)): removes the block in expression of KIAA1983 mRNA
expression of KIAA1983 following treatment ([2]; normal ovarian cells (non-transformed HOSE 6-3 control)): note modulated

From patent publication US20070178458A1, “Methods of diagnosis and prognosis of ovarian cancer II” (priority 2003, published 2007)
